Test: Thermogravimetric analysis (TGA), thermal stability
Type: physicochemical
Details: 10° C./min, nitrogen
Procedure: TGA. […] Each sample was placed in an alumina crucible and heated from 25 to 1000° C. at a heating rate of 10° C./min under a constant flow of nitrogen. […] The different thermal decomposition pattern of a-CAA further supports the hypothesis that the milling product is a co-amorphous formulation and not a physical mixture of amorphous starting materials. […] The similarity between the IR spectra of both formulations points to similarities in their local structures and is indicative of a 1:1 stoichiometry. This stoichiometry was confirmed by thermal analyses. […] The similar TGA profiles of dried c-CAA and a-CAA, shown in FIGS. 3A and 3B, further confirm that the co-amorphous and the co-crystalline formulation have the same stoichiometry and similar local structures.

SMILES: CN(CC(=O)O)C(=N)N [creatine anhydrate]
- decomposition temperature (stable up to): 220 °C

SMILES: O=C(O)CC(O)(CC(=O)O)C(=O)O [citric acid anhydrate]
- decomposition temperature (stable up to): 164 °C

From patent US12208076B2 (Southern Methodist University, priority 2020, dated 2025)
